Measured values from ChEMBL document CHEMBL1154198, “Chemical genetics of Plasmodium falciparum” (Nature, 2010).

Tests used:
Plasmodium falciparum [1] = test: ST_JUDE: Plasmodium falciparum K1 EC50 (uM) as measured by SYBR green dye; assay type: functional, organism-based
Plasmodium falciparum [2] = test: ST_JUDE: Plasmodium falciparum 3D7 EC50 (uM) as measured by SYBR green dye; assay type: functional, organism-based

| Compound | EC50 (Plasmodium falciparum [1]) | EC50 (Plasmodium falciparum [2]) |
| --- | --- | --- |
| CC(=O)OCCCCCCCCCCC[N+]1(C)CCCCC1 | 5.48 µM | > 15 µM |
| COc1cc(CN(Cc2cccnc2)C(=O)c2[nH]c3ccc(Cl)cc3c2C)ccc1OC1CCOC1 (stereo not drawn) | > 15 µM | > 15 µM |
| CCCCN(C)CCNC(=O)c1cc2c(-c3ccccc3F)nn(C)c2s1 | > 15 µM | 1.62 µM |
| CCN(CC)CC(O)COc1ccccc1C(=O)CCc1ccccc1 (stereo not drawn) | 1.08 µM | 2.17 µM |
| CCCC(=O)NC(c1ccc(C)cc1)c1ccc2cccnc2c1O (stereo not drawn) | > 15 µM | 4.21 µM |
| CCOc1ccc2nc(C)cc(Nc3ccc(N4CCOCC4)cc3)c2c1 | 6.36 µM | 0.982 µM |
| O=C(CCCCCN1C(=O)c2cccc3cccc(c23)C1=O)NO [SCRIPTAID] | 2.22 µM | 3.78 µM |
| CCCCCCOC(=O)c1[nH]c2c(c1C)C(=O)CC(c1ccco1)C2 (stereo not drawn) | 2.03 µM | 2.52 µM |
| CCOC(=O)C1=C(CN(C)c2ccc(F)cc2)NC(=O)NC1c1ccc(F)cc1 (stereo not drawn) | 1.23 µM | 3.51 µM |
| CCOC(=O)C1=CN(Cc2ccc(F)cc2)C=C(C(=O)OCC)C1c1cc(OC)c(OC)c(OC)c1 | 0.521 µM | > 15 µM |
| O=[N+]([O-])c1ccc(NC(=S)Nc2cc(C(F)(F)F)cc(C(F)(F)F)c2)cc1 | 0.631 µM | 1.64 µM |
| CSc1nc(N)c2c(n1)N=C1CC(C)(C)CC(O)=C1C2c1cccs1 (stereo not drawn) | > 15 µM | > 15 µM |
| COc1ccc(OCC(O)Cn2c(C)[n+](C)c3ccccc32)cc1 (stereo not drawn) | > 15 µM | > 15 µM |
| Cc1cccc2sc(NNC(=O)c3ccc(S(=O)(=O)N(C)C)cc3)nc12 | 5.83 µM | 7.12 µM |
| COc1ccc(N/C=C2/C(=O)N(c3ccc(OC)cc3)C(=O)c3ccccc32)cc1 | > 15 µM | > 15 µM |
| CCC[N+]1(C)CCC2C(C1)c1ccccc1N2Cc1ccccc1 (stereo not drawn) | > 15 µM | 4.25 µM |
| Oc1ccc(Nc2nc(NCc3ccccc3)c3ccccc3n2)cc1 | > 15 µM | 0.203 µM |
| CCOc1ccc2c(c1)C(=NNC(=N)N)c1cc(OCC)ccc1-2 | 6.96 µM | 0.398 µM |
| CCN(CC)CCNC(=O)c1ccc(Cn2c(SCc3ccccc3C)nc3ccncc32)cc1 | > 15 µM | 6.74 µM |
| COc1ccc(Nc2cc(C)nc(Nc3ccc(NS(=O)(=O)c4ccc(C)cc4)cc3)n2)cc1 | > 15 µM | 0.559 µM |
| COc1ccc(-n2c(C)cc(/C=c3\sc4nc5ccccc5n4c3=O)c2C)cc1 | > 15 µM | > 15 µM |

| Compound | EC50 (Plasmodium falciparum [1]) | EC50 (Plasmodium falciparum [2]) |
| --- | --- | --- |
| CCN(CC)S(=O)(=O)c1ccc(C(=O)Nc2nc(-c3ccccc3OC)cs2)cc1 | > 15 µM | > 15 µM |
| CCCOc1ccc(/C=C/c2ccc3cccc(O)c3n2)cc1 | > 15 µM | > 15 µM |
| CCOC(=O)N1CCC(NC(=S)Nc2ccc(C(C)(C)C)cc2)CC1 | 2.64 µM | 9.44 µM |
| CCCCCCCCCn1ccc(=N)cc1 | 0.465 µM | 0.835 µM |
| O=C(Nc1cccc(OC(F)(F)F)c1)c1ccc(Br)o1 | > 15 µM | > 15 µM |
| COCc1cc(CN2CCN(c3ccccc3OC)CC2)c(O)c2ncccc12 | 9.06 µM | 4.19 µM |
| Cc1cc(N(C)C)nc(Nc2ccc(NS(=O)(=O)c3cc(C(C)C)ccc3C)cc2)n1 | 3.35 µM | 1.55 µM |
| CCN(CC)CCNC(=O)c1ccc2c(c1)sc1nc(-c3ccccc3)cn12 | 1.5 µM | 1.03 µM |
| Cc1ccc(Nc2cc(C)nc(Nc3ccc(NS(=O)(=O)c4cccc(F)c4)cc3)n2)cc1 | > 15 µM | 1.24 µM |
| C=CCOc1cccc(C(Nc2cc(C)ccn2)c2ccc3cccnc3c2O)c1 (stereo not drawn) | 4.09 µM | 3.17 µM |
| CCc1c(C)nc(-n2nc(C)cc2NC(=O)c2ccccc2F)nc1O | > 15 µM | > 15 µM |
| CC(=O)Nc1ccc(Nc2c3ccccc3nc3ccccc23)cc1 | 1.37 µM | 2.69 µM |
| COc1ccc(Cl)c2sc(N(Cc3cccnc3)C(=O)c3ccc(S(C)(=O)=O)cc3)nc12 | > 15 µM | > 15 µM |
| CCCc1cc(O)nc(-n2nc(C)cc2NC(=O)c2ccc(C)cc2)n1 | > 15 µM | > 15 µM |
| CCCCOc1cccc(C(=O)Nc2ccc(CN3CCCCC3)cc2)c1 | > 15 µM | > 15 µM |
| O=C(Nc1cccc(Cl)c1)C1c2ccccc2C(=O)N(C2CCCC2)C1c1cccs1 (stereo not drawn) | 0.326 µM | 0.297 µM |
| COc1ccc(N(CC(=O)Nc2cccc(C(F)(F)F)c2)S(C)(=O)=O)cc1 | > 15 µM | > 15 µM |
| CCOC(=O)c1cnc2c(C)cc(C)cc2c1NCc1cccnc1 | 6.18 µM | 4.77 µM |
| CCOc1ccc(C2c3cccn3CCN2C(=O)Nc2cccc(C)c2)cc1 (stereo not drawn) | > 15 µM | > 15 µM |
| O=C(N/N=C/c1cc(Br)cc([N+](=O)[O-])c1O)NC12CC3CC(CC(C3)C1)C2 | 0.959 µM | > 15 µM |
| CCOc1ccc(NC(=O)C2c3cc(OC)c(OC)cc3C(=O)N(C)C2c2ccc(OC)cc2)cc1 (stereo not drawn) | 1.07 µM | > 15 µM |

| Compound | EC50 (Plasmodium falciparum [1]) | EC50 (Plasmodium falciparum [2]) |
| --- | --- | --- |
| CO/C(O)=C1\C(C)=NC2=C(C(=O)CC(c3ccccc3OC)C2)C1c1ccc([N+](=O)[O-])cc1 (stereo not drawn) | > 15 µM | 3.83 µM |
| Oc1c(Cl)cc(Cl)cc1CN1CCN(c2ccccc2F)CC1 | 0.861 µM | 1.85 µM |
| CN1C(=O)/C(=C\c2cccc(Cl)c2)Sc2ccc(C(=O)NC3CCN(Cc4ccccc4)CC3)cc21 | > 15 µM | 0.657 µM |
| Cc1cc(NC(=O)CSc2ccc3nnc(-c4ccc(Cl)cc4)n3n2)no1 | > 15 µM | > 15 µM |
| CCO/C(O)=C1\C(C)=NC2=C(C(=O)CC(c3ccccc3)C2)C1c1ccc(Cl)cc1 (stereo not drawn) | 6.69 µM | 3.85 µM |
| CSc1nc(SC)c2c3c(sc2n1)CN(C)CC3 | 4.75 µM | 4.16 µM |
| O=C1CC(c2ccc(F)cc2F)C2=C(CC(c3ccc(F)cc3)CC2=O)N1 (stereo not drawn) | 0.73 µM | 4.71 µM |
| O=[N+]([O-])c1cc(C(F)(F)F)ccc1NCCCNS(=O)(=O)c1ccc(Cl)cc1 | > 15 µM | > 15 µM |
| O=C(N1CCCN(C(=O)C(Cl)(Cl)Cl)CC1)C(Cl)(Cl)Cl | 2.23 µM | 3.42 µM |
| CO/C(O)=C1\C(C)=NC2=C(C(=O)CC(c3ccc(OC)c(OC)c3)C2)C1c1cccc(Cl)c1 (stereo not drawn) | 3.46 µM | 4.1 µM |
| CCCOc1ccc(-c2nonc2NC(=O)c2cccc(OC)c2)cc1OCCC | 1.21 µM | 1.16 µM |
| O=C(c1ccc(C(F)(F)F)cc1)N(Cc1ccc(OCc2ccc(F)cc2)cc1)Cc1cccnc1 | > 15 µM | > 15 µM |
| Cc1cccc(NC(c2ccc(F)cc2)c2ccc3cccnc3c2O)n1 (stereo not drawn) | 4.17 µM | 1.51 µM |
| CCOC(=O)c1sc(N2C(=O)C(O)=C(C(=O)c3ccc(Cl)cc3)C2c2ccccc2)nc1C (stereo not drawn) | > 15 µM | > 15 µM |
| Oc1ccc(Cl)cc1Nc1ncnc2ccc(Br)cc12 | 3.85 µM | > 15 µM |
| CCN(CC)C(=O)c1sc(NC(=O)CCc2ccccc2)c(C(=O)OC(C)C)c1C | > 15 µM | > 15 µM |
| CCN(CC)CCNC(=O)c1ccc2c(c1)sc1nc(-c3ccc(C)cc3)cn12 | 4.83 µM | 1.65 µM |
| COC(=O)c1ccc(Nc2nc(NCc3ccco3)c3ccccc3n2)cc1 | 8.54 µM | 4.89 µM |
| CCOc1ccc(Nc2cc(C)nc3c(C)cc(C)cc23)cc1 | 6.67 µM | 3.73 µM |
| Cc1cc(O)nc(-n2nc(C)cc2NC(=O)c2cccc(C(F)(F)F)c2)n1 | 1.5 µM | > 15 µM |
| Cc1ccc(NC(=O)C2c3ccccc3C(=O)N(C3CCCC3)C2c2cccs2)cc1 (stereo not drawn) | 1.44 µM | > 15 µM |

| Compound | EC50 (Plasmodium falciparum [1]) | EC50 (Plasmodium falciparum [2]) |
| --- | --- | --- |
| Cc1cccc2sc(N(Cc3cccnc3)C(=O)c3ccc(C#N)cc3)nc12 | 3.08 µM | > 15 µM |
| CCOc1ccc(C2c3cccn3CCN2C(=O)NCc2ccccc2)cc1 (stereo not drawn) | > 15 µM | 3.98 µM |
| CCOc1ccc(NC(=O)C2c3ccccc3C(=O)N(C3CCCC3)C2c2cccs2)cc1 (stereo not drawn) | 3.88 µM | 2.95 µM |
| Cc1nc2ccccc2c(=O)n1-c1cccc(NC(=O)c2ccc(C(F)(F)F)cc2)c1 | > 15 µM | > 15 µM |
| Cc1ccc(OCC(=O)Nc2cc(C)nn2-c2nc(C)cc(O)n2)cc1 | > 15 µM | > 15 µM |
| CCc1c(C)nc(-n2nc(C)cc2NC(=O)c2cccc(OC)c2)nc1O | > 15 µM | > 15 µM |
| CCCCN(C)C(=O)C1c2ccccc2C(=O)N(CC(C)C)C1c1cccs1 (stereo not drawn) | 1.74 µM | 1.52 µM |
| CCOC(=O)c1ccc(NC(=O)CSc2nn3c(=O)c(C)nnc3s2)cc1 | > 15 µM | > 15 µM |
| CC(=O)N(C1=C(N(C)C)C(=O)c2ccccc2C1=O)c1ccc(I)cc1 | 0.0458 µM | 0.0315 µM |
| CC1CCN(Cc2c(O)ccc3ccccc23)CC1 | 0.492 µM | 0.368 µM |
| Cc1ccc(NC(=O)C2c3ccccc3C(=O)N(CC(C)C)C2c2cccs2)nc1 (stereo not drawn) | 1.43 µM | 1.32 µM |
| CCC1CCCCN1CCCNC(=S)Nc1ccc2nc(N3CCN(CC)CC3)cc(C)c2c1 (stereo not drawn) | 9.17 µM | 4.39 µM |
| CCS(=O)(=O)Nc1ccc(C2=NN(C(=O)c3ccco3)C(c3ccc(F)cc3)C2)cc1 (stereo not drawn) | 6.12 µM | > 15 µM |
| CC1=C/C(=N\OC(=O)c2ccc(Br)cc2)C=CC1=O | > 15 µM | > 15 µM |
| Oc1c(C(Nc2ccccn2)c2ccc(Cl)cc2)ccc2cccnc12 (stereo not drawn) | 4.11 µM | 2.72 µM |
| CCOC(=O)CCc1c(C)c2cc3c(c(C)c2oc1=O)OCN(Cc1ccccc1OC)C3 | 1.22 µM | 3.04 µM |
| CCCN1CCN(CCCNC(=S)Nc2ccc3nc(N4CCN(C)CC4)cc(C)c3c2)CC1 | 6.85 µM | 5.43 µM |
| CC(=O)N1CCc2c(sc(NC(=O)c3cc([N+](=O)[O-])ccc3Cl)c2C#N)C1 | 1.32 µM | 4.07 µM |
| Cc1sc(NC(=O)c2cc(-c3ccccn3)nc3ccc(Cl)cc23)c(C(N)=O)c1C | > 15 µM | > 15 µM |
| Cc1onc(-c2ccccc2)c1C(=O)Nc1cccc(Br)c1 | > 15 µM | > 15 µM |
| CC(C)(O)C#Cc1ccc([C@@H]2C[C@H]3CN(Cc4cccc(Cl)c4)C(=O)[C@]34CCCN24)cc1 | 5.79 µM | 4.64 µM |
